From patent US20250197799A1, “CELLS DERIVED FROM POLYPEDILUM VANDERPLANKI AND ODOR SENSOR EQUIPPED THEREWITH” (University of Maryland, College Park, priority 2022, published 2025)

Experiments:
Format in all cases: cell-based
[1] = biological target: T1, Orco (Drosophila melanogaster, UniProt Q9VNB5); test: Response of BAM-immobilized Orco stable expression cell line; conditions: Pv11-GCaMP6f-Orco stable expression cell line immobilized with BAM
T1 construct: remnant residues; expressed in transfected cells; host or cells: Pv11 cells (Polypedilum vanderplanki), knock-in at the Pv.00443 locus downstream of the 121 promoter, single-cell sorting
T1 sequence (Q9VNB5 1-486): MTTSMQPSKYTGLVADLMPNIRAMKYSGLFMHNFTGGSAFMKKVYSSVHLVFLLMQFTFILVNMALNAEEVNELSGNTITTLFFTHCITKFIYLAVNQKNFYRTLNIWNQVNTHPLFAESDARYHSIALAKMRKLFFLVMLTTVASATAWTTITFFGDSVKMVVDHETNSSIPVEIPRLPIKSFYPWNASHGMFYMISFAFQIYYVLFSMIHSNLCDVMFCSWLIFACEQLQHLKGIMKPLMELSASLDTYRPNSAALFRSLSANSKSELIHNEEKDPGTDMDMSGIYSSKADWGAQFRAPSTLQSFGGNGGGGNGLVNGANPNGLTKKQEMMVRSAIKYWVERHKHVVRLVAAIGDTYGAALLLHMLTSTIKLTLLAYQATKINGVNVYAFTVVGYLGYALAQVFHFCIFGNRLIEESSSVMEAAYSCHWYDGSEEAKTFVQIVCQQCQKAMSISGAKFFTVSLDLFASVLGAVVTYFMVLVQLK
Source text: (§1) 8.1 Pv11 cell immobilization. A cell membrane modifier (BAM: Biocompatible Anchor for cell Membrane) was used to fix the stable expression cell line obtained above. BAM consists of a hydrophilic PEG chain, an NHS group, and a hydrophobic oleyl group; by bringing BAM into contact with a collagen-coated dish, the NHS group binds to collagen, and the oleyl group interacts with the cell membrane through hydrophobic interactions, allowing cells to adhere. BAM (SUNBRIGHT OE-040CS, Yuka Sangyo Co., Ltd.) was dissolved in DMSO (Fujifilm Wako Pure Chemical Industries) to a concentration of 10 mM. The 10 mM BAM solution was adjusted to DPBS(-) (Thermo Fisher) to a final concentration of 100 μM, 100 μl was dropped onto a collagen 1-coated 48-well microplate (IWAKI) and incubated at 37° C. for 1 hour. The BAM solution was removed, washed once with DPBS(-) (Thermo Fisher) and five times with MilliQ, and allowed to stand still to evaporate water droplets. The Pv11 cell suspension was centrifuged at 700 g for 3 minutes, the supernatant was removed, the cell pellet was suspended in DPBS(-) (Thermo Fisher) and dropped onto a BAM-coated dish. […]
(§2) 8.2 Functional confirmation of exogenous membrane proteins in fixed cells. […] Each substance was reacted with each cell in the same manner as in 3.2 above, and the fluorescence intensity was measured. […]

[2] = biological target: T2, Orco-Or47a (Drosophila melanogaster, UniProt P81921+Q9VNB5); test: Functional confirmation of exogenous membrane proteins in Orco-Or47a stable expression cell line; parameters: remnant residues; expressed in transfected cells; conditions: VUAA1 final 100 μM; pentyl acetate final 1 mM; DMSO negative control
T2 sequence (Q9VNB5 1-486): T1 sequence (Q9VNB5 1-486)
T2 sequence (P81921 1-385): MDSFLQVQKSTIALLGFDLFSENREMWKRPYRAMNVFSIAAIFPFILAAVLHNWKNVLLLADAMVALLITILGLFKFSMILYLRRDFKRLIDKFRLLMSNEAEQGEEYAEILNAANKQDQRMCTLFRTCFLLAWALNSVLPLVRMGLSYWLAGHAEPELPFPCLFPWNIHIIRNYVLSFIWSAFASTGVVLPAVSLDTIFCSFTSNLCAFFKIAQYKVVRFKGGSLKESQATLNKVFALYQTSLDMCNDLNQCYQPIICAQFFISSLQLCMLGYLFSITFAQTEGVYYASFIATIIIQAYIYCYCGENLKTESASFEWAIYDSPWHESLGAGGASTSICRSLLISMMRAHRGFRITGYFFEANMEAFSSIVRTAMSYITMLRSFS
Procedure: 3.2 The functionality of GCaMP6f. The functionality of GCaMP6f in the resulting cell lines was evaluated using Ionomycin (Ionomycin; Fujifilm Wako Pure Chemical) to increase the intracellular concentration of calcium ions to provide functional confirmation of exogenous proteins in the GCaMP6f stable-expressing cell line. Ionomycin was dissolved in dimethyl sulfoxide (DMSO; Fujifilm Wako Pure Chemical Industries, Ltd.), adjusted to a final DMSO concentration of 1% and an ionomycin final concentration of 1 μM in IP1-41 medium, and added to the cell solution. As a negative control, DMSO was adjusted to a final concentration of 1% in IP 1-41 medium and added to the cell solution. Bright-field images and fluorescence images (ex: 470/40 nm; em: 525/50 nm) of the cells before and after solution addition were taken (all-in-one fluorescence microscope BZ-X710, Keyence). […] For statistical analysis of fluorescence intensity, one-way ANOVA was performed using Prism8 (GraphPad), followed by Tukey's multiple comparison test as a post-hoc test,
3.3 Functional confirmation of exogenous membrane proteins in cell lines with stable expression of Orco-Or47a. The amount of fluorescence expression was confirmed by the same operation as in 3.2 above. […] Fluorescence images were taken at an excitation wavelength/emission wavelength of 488 nm/525 nm. […]

[3] = biological target: T2, Orco-Or47a; test: Response of BAM-immobilized Orco-Or47a stable expression cell line; parameters: remnant residues; expressed in transfected cells; host or cells: Pv11 cells (Polypedilum vanderplanki), CRIS-PITCh knock-in at the Pv.00443 locus downstream of the 121 promoter, Zeocin selection and single-cell sorting; conditions: Pv11-GCaMP6f-Orco-Or47a stable expression cell line immobilized with BAM
Source text: as §1, §2

Row | Compound | response (fluorescence intensity) of immobilized cells [1] | fluorescence intensity [2] | response (fluorescence intensity) of immobilized cells [3]
1 | CCCCCOC(C)=O [pentyl acetate] | did not respond | increase in fluorescence intensity was also observed | responded
2 | CCc1ccc(NC(=O)CSc2nnc(-c3cccnc3)n2CC)cc1 [VUAA1, N-(4-ethylphenyl)-2-{[4-ethyl-5-(pyridin-3-yl)-4H-1,2,4-triazol-3-yl]sulfanyl}acetamide] | did respond | increase in fluorescence intensity was observed | responded
